# Counter-ions that a name gives are not always drawn.
# Tests used:
# [1] = Solubility in a mixture of water-ethanol (1:1) at 25° C. (Table 1); format: physicochemical
# [2] = Solubility for injectable solvents / the solvent for the administration (stated in words); format: physicochemical; conditions: for solubility for the solvent for the administration: compared with the mixture of salts of the formula (B) and calcium salt
# [3] = Pharmacological activity (lipid A-like activity; stated in words, no test described); conditions: sufficiency for use as a pharmaceutical agent
SMILES,Solubility [1],solubility for the solvent for the administration [2],solubility for injectable solvents ([2]; injectable solvents),pharmacological activity [3]
"CCCCCCCCCCC[C@@H](CC(=O)N[C@H]1C(O)O[C@H](CO)[C@@H](OS(=O)(=O)O)[C@@H]1OC(=O)CCCCCCCCc1ccccc1)OC(=O)CCCCCCCCc1ccccc1 (mixture of isomers) [Reference example 5, mixture salt of calcium, sodium and magnesium of 2-deoxy-2-[(3S)-(9-phenylnonanoyloxy)tetradecanoyl]amino-3-O-(9-phenylnonanoyl)-4-O-sulfo-D-glucopyranose, reference compound]",1.5 mg/mL,,,
"CCCCCCCCCCC[C@@H](CC(=O)N[C@H]1C(O)O[C@H](CO)[C@@H](OS(=O)(=O)O)[C@@H]1OC(=O)CCCCCCCCc1ccccc1)OC(=O)CCCCCCCCc1ccccc1 (single isomer, unassigned) [Example 3]",212 mg/mL,very good solubility,,
"CCCCCCCCCCC[C@@H](CC(=O)N[C@H]1C(O)O[C@H](CO)[C@@H](OS(=O)(=O)O)[C@@H]1OC(=O)CCCCCCCCc1ccccc1)OC(=O)CCCCCCCCc1ccccc1 (single isomer, unassigned) [Example 4]",> 270 mg/mL,very good solubility,,
"CCCCCCCCCCC[C@@H](CC(=O)N[C@H]1C(O)O[C@H](CO)[C@@H](OS(=O)(=O)O)[C@@H]1OC(=O)CCCCCCCCc1ccccc1)OC(=O)CCCCCCCCc1ccccc1 (stereo partly drawn) [formula (Aa), 2-Deoxy-2-[(3S)-(9-phenylnonanoyloxy)tetradecanoyl]amino-3-O-(9-phenylnonanoyl)-4-O-sulfo-D-glucopyranose, reference compound]",,,very poor,sufficient pharmacological activity

# Source: patent publication US5733927A, “Salts of glucopyranose derivative and solutions of the same” (Ono Pharmaceutical Co., Ltd., priority 1992, dated 1998)
